In brackets after ≈: the same amount, converted by molar mass.
How the values were obtained:
Assay type in all cases: functional
[1] = system: Enterococcus faecalis; assay: Antibacterial activity against Enterococcus faecalis ATCC 29212; details: Enterococcus faecalis, ATCC 29212; read-out: MIC
[2] = system: Staphylococcus aureus; assay: Antibacterial activity against Staphylococcus aureus Smith
[3] = system: Escherichia coli; assay: Antibacterial activity against Escherichia coli ATCC 25922; details: Escherichia coli, ATCC 25922; read-out: MIC
[4] = system: Pseudomonas aeruginosa; assay: Antibacterial activity against Pseudomonas aeruginosa PAO1; details: Pseudomonas aeruginosa, PAO1; read-out: MIC
[5] = system: Acinetobacter baumannii; assay: Antibacterial activity against Acinetobacter baumannii IID876; details: Acinetobacter baumannii, IID876; read-out: MIC
[6] = system: Enterococcus faecium; assay: Antibacterial activity against VanA-type vancomycin-resistant Enterococcus faecium A2373; details: Enterococcus faecium, A2373; read-out: MIC
[7] = system: Streptococcus pneumoniae; assay: Antibacterial activity against Streptococcus pneumoniae IID554; details: Streptococcus pneumoniae, IID554; read-out: MIC
[8] = system: Staphylococcus aureus; assay: Ratio of MIC for quinolone-resistant Staphylococcus aureus MS5935 to MIC for quinolone-sensitive Staphylococcus aureus
[9] = system: Moraxella catarrhalis; assay: Antibacterial activity against Moraxella catarrhalis ATCC 25238; details: Moraxella catarrhalis, ATCC 25238; read-out: MIC
[10] = system: Haemophilus influenzae; assay: Antibacterial activity against Haemophilus influenzae ATCC 49247; details: Haemophilus influenzae, ATCC 49247; read-out: MIC
[11] = Staphylococcus aureus, Smith, read-out: MIC

| SMILES | MIC [1] [µg/mL] | MIC [2, 11] [µg/mL] | MIC [3] [µg/mL] | MIC [4] [µg/mL] | MIC [5] [µg/mL] | MIC [6] [µg/mL] | MIC [7] [µg/mL] | MIC [2] [µg/mL] | Ratio [8] | MIC [9] [µg/mL] | MIC [10] [µg/mL] |
| --- | --- | --- | --- | --- | --- | --- | --- | --- | --- | --- | --- |
| O=C1CSc2ccc(CNC34CCC(C[C@]5(O)Cn6c(=O)ccc7ncc(F)c5c76)(CC3)OC4)nc2N1 | 2 (≈ 3.82 µM) | 0.25 (≈ 0.477 µM) | 4 (≈ 7.64 µM) | 16 (≈ 30.6 µM) | 2 (≈ 3.82 µM) | 8 (≈ 15.3 µM) | 0.5 (≈ 0.955 µM) |  |  |  |  |
| O=C1COc2cnc(CNC34CCC(C[C@]5(O)Cn6c(=O)ccc7ncc(F)c5c76)(CC3)OC4)cc2N1 | 8 (≈ 15.8 µM) | 4 (≈ 7.88 µM) | 16 (≈ 31.5 µM) | 32 (≈ 63.1 µM) | 32 (≈ 63.1 µM) | 32 (≈ 63.1 µM) | 4 (≈ 7.88 µM) |  |  |  |  |
| O=C1COc2ccc(CNC34CCC(C[C@]5(O)Cn6c(=O)ccc7ncc(F)c5c76)(CC3)OC4)cc2N1 | 4 (≈ 7.9 µM) | 1.5 (≈ 2.96 µM) | 6 (≈ 11.8 µM) | 16 (≈ 31.6 µM) | 8 (≈ 15.8 µM) | 16 (≈ 31.6 µM) | 1 (≈ 1.97 µM) |  |  |  |  |
| O=C1COc2ccc(C(=O)NC34CCC(C[C@]5(O)Cn6c(=O)ccc7ncc(F)c5c76)(CC3)OC4)nc2N1 | 8 (≈ 15.3 µM) | 1 (≈ 1.92 µM) | 32 (≈ 61.4 µM) | 32 (≈ 61.4 µM) | 16 (≈ 30.7 µM) | 16 (≈ 30.7 µM) | 4 (≈ 7.67 µM) | 0.25 (≈ 0.479 µM) | <4 |  |  |
| O=c1ccc2ncc(F)c3c2n1C[C@@]3(O)CC12CCC(NCc3ncc4c(c3Cl)OCCO4)(CC1)CO2 | 8 (≈ 15.1 µM) | 2 (≈ 3.78 µM) | 32 (≈ 60.5 µM) | 32 (≈ 60.5 µM) | 32 (≈ 60.5 µM) | 32 (≈ 60.5 µM) | 1 (≈ 1.89 µM) |  |  | 32 (≈ 60.5 µM) |  |
| O=c1ccc2ncc(F)c3c2n1C[C@@]3(O)CC12CCC(NCc3ccc4c(n3)OCCO4)(CC1)CO2 | 8 (≈ 16.2 µM) | 2 (≈ 4.04 µM) | 32 (≈ 64.7 µM) | 32 (≈ 64.7 µM) | 32 (≈ 64.7 µM) | 32 (≈ 64.7 µM) | 2 (≈ 4.04 µM) |  |  | 32 (≈ 64.7 µM) |  |
| O=c1ccc2ncc(F)c3c2n1C[C@@]3(O)CC12CCC(NCc3ccc4c(c3)OCCO4)(CC1)CO2 | 2 (≈ 4.05 µM) | 0.12 (≈ 0.243 µM) | 16 (≈ 32.4 µM) | 32 (≈ 64.8 µM) | 4 (≈ 8.1 µM) | 4 (≈ 8.1 µM) | 0.25 (≈ 0.507 µM) |  |  | 0.5 (≈ 1.01 µM) |  |
| O=c1ccc2ncc(F)c3c2n1C[C@@]3(O)CC12CCC(NCc3cc4c(cc3F)OCCO4)(CC1)CO2 | 2 (≈ 3.91 µM) | 0.25 (≈ 0.489 µM) | 32 (≈ 62.6 µM) | 32 (≈ 62.6 µM) | 8 (≈ 15.6 µM) | 8 (≈ 15.6 µM) | 0.5 (≈ 0.977 µM) |  |  | 8 (≈ 15.6 µM) |  |
| O=c1ccc2ncc(F)c3c2n1C[C@@]3(O)CC12CCC(NCc3c(Cl)cc4c(c3Cl)OCCO4)(CC1)CO2 | 16 (≈ 28.4 µM) | 4 (≈ 7.11 µM) | 32 (≈ 56.9 µM) | 32 (≈ 56.9 µM) | 32 (≈ 56.9 µM) | 32 (≈ 56.9 µM) | 4 (≈ 7.11 µM) |  |  | 32 (≈ 56.9 µM) | 32 (≈ 56.9 µM) |
| O=c1ccc2ncc(F)c3c2n1C[C@@]3(O)CC12CCC(NCc3cc4c(c(Cl)c3Cl)OCCO4)(CC1)CO2 | 8 (≈ 14.2 µM) | 1 (≈ 1.78 µM) | 32 (≈ 56.9 µM) | 32 (≈ 56.9 µM) | 32 (≈ 56.9 µM) | 32 (≈ 56.9 µM) | 4 (≈ 7.11 µM) |  |  | 0.5 (≈ 0.889 µM) | 32 (≈ 56.9 µM) |
| O=c1ccc2ncc(F)c3c2n1C[C@@]3(O)CC12CCC(NCc3cc(Cl)c4c(c3Cl)OCCO4)(CC1)CO2 | 4 (≈ 7.11 µM) | 0.5 (≈ 0.889 µM) | 32 (≈ 56.9 µM) | 32 (≈ 56.9 µM) | 32 (≈ 56.9 µM) | 16 (≈ 28.4 µM) | 0.25 (≈ 0.445 µM) |  |  | 2 (≈ 3.56 µM) |  |
| O=c1ccc2ncc(F)c3c2n1C[C@@]3(O)CC12CCC(NCc3ccc4c(n3)NCCO4)(CC1)CO2 | 8 (≈ 16.2 µM) | 2 (≈ 4.05 µM) | 32 (≈ 64.8 µM) | 32 (≈ 64.8 µM) | 8 (≈ 16.2 µM) | 16 (≈ 32.4 µM) | 1 (≈ 2.03 µM) |  |  | 4 (≈ 8.1 µM) |  |
| CN1CCOc2nc(CNC34CCC(C[C@]5(O)Cn6c(=O)ccc7ncc(F)c5c76)(CC3)OC4)ccc21 | 16 (≈ 31.5 µM) | 2 (≈ 3.94 µM) | 16 (≈ 31.5 µM) | 16 (≈ 31.5 µM) | 16 (≈ 31.5 µM) | 16 (≈ 31.5 µM) | 4 (≈ 7.88 µM) |  | <4 |  |  |
| CN1CCN(C)c2nc(CNC34CCC(C[C@]5(O)Cn6c(=O)ccc7ncc(F)c5c76)(CC3)OC4)ccc21 | 32 (≈ 61.5 µM) | 8 (≈ 15.4 µM) | 32 (≈ 61.5 µM) | 32 (≈ 61.5 µM) | 32 (≈ 61.5 µM) | 32 (≈ 61.5 µM) | 32 (≈ 61.5 µM) |  |  | 32 (≈ 61.5 µM) | 32 (≈ 61.5 µM) |
| O=c1ccc2ncc(F)c3c2n1C[C@@]3(O)CC12CCC(NCc3ccc4c(c3)OCO4)(CC1)CO2 | 4 (≈ 8.34 µM) | 0.5 (≈ 1.04 µM) | 32 (≈ 66.7 µM) | 32 (≈ 66.7 µM) | 4 (≈ 8.34 µM) | 16 (≈ 33.4 µM) | 0.5 (≈ 1.04 µM) |  |  | 4 (≈ 8.34 µM) |  |
| O=c1ccc2ncc(F)c3c2n1C[C@@]3(O)CC12CCC(NCc3ccc4c(c3)OC(F)(F)O4)(CC1)CO2 | 8 (≈ 15.5 µM) | 0.25 (≈ 0.485 µM) | 32 (≈ 62.1 µM) | 32 (≈ 62.1 µM) | 32 (≈ 62.1 µM) | 32 (≈ 62.1 µM) | 1 (≈ 1.94 µM) |  |  | 4 (≈ 7.76 µM) |  |

Reference: ChEMBL document CHEMBL3425423, “Hydroxy tricyclic 1,5-naphthyridinone oxabicyclooctane-linked novel bacterial topoisomerase inhibitors as broad-spectrum antibacterial agents-SAR of RHS moiety (Part-3)” (Bioorg Med Chem Lett, 2015)
